Measurements published in patent US20040053996A1, “Use of oxabicyclo[2.2.1]heptane derivatives as pesticidal agents” (priority 2000, published 2004).

Tests used:
[1] = test system: Erysiphe graminis f. sp.hordei; assay: Erysiphe test (barley)/induction of resistance; format: in vivo; conditions: young barley plants sprayed at 750 g/ha; inoculated 4 days after treatment; evaluated 7 days after inoculation; 100% = no disease
Protocol: Erysiphe Test (Barley)/Induction of Resistance
To produce a suitable preparation of active compound, 1 part by weight of active compound is mixed with the stated amount of solvent, and the concentrate is diluted with water and the stated amount of emulsifier to the desired concentration.
To test for resistance-inducing activity, young barley plants are sprayed with the preparation of active compound at the stated rate of application. 4 days after the treatment, the plants are inoculated with an aqueous spore suspension of Erysiphe graminis f. sp.hordei. The plants are subsequently placed in a greenhouse at 70% relative atmospheric humidity and 18° C.
The test is evaluated 7 days after the inoculation. 0% means an efficacy which corresponds to that of the control while an efficacy of 100% means that no disease is observed.

[2] = test system: larvae of Phaedon cochleariae; assay: Phaedon larvae test; format: in vivo; conditions: 1000 ppm, cabbage leaves (Brassica oleracea) dipped, infested with larvae
Protocol: (§1) To produce a suitable preparation of active compound, 1 part by weight of active compound is mixed with the stated amounts of solvent and of emulsifier, and the concentrate is diluted with emulsifier—containing water to the desired concentration.
Cabbage leaves (Brassica oleracea) are treated by being dipped into the preparation of active compound of the desired concentration and are infested with larvae of Phaedon cochleariae while the leaves are still moist.
After the desired period of time, the kill in % is determined. 100% means that all beetle larvae have been killed; 0% means that no beetle larvae have been killed.

[3] = test system: green rice leaf hopper (Nephotettix cincticeps); assay: Nephotettix test; format: in vivo; conditions: 1000 ppm, rice seedlings (Oryza sativa) dipped, infested with larvae
Protocol: To produce a suitable preparation of active compound, 1 part by weight of active compound is mixed with the stated amount of solvent and the stated amount of emulsifier, and the concentrate is diluted with water to the desired concentration.
Rice seedlings (Oryza sativa) are treated by being dipped into the preparation of active compound of the desired concentration and are infested with larvae of the green rice leaf hopper (Nephotettix cincticeps) while the seedlings are still moist.
After the desired period of time, the kill in % is detemruned. 100% means that all leaf hoppers have been killed; 0% means that none of the leaf hoppers have been killed.

[4] = test system: greenhouse red spider mite (Tetranychus urticae); assay: Tetranychus test (OP-resistant/dip treatment); format: in vivo; conditions: 1000 ppm, infested bean plants (Phaseolus vulgaris) dipped, OP-resistant mites
Protocol: Tetranychus Test (OP Resistant/Dip Treatment)
To produce a suitable preparation of active compound, 1 part by weight of active compound is mixed with the stated amount of solvent and the stated amount of emulsifier, and the concentrate is diluted with emulsifier-containing water to the desired concentration.
Bean plants (Phaseolus vulgaris) which are heavily infested by all stages of the greenhouse red spider mite (Tetranychus urticae) are dipped into a solution of the active compound at the desired concentration.
After the desired period of time, the effect in % in determined. 100% means that all spider mites have been killed; 0% means that none of the spider mites have been killed.

Meloidogyne incognita = Meloidogyne incognita test; format: in vivo; conditions: 20 ppm; sand with egg-larvae suspension and lettuce seeds; nematocidal activity from gall formation, 100% = no galls
Protocol: To produce a suitable preparation of active compound, 1 part by weight of active compound is mixed with the stated amounts of solvent and of emulsifier, and the concentrate is diluted with water to the desired concentration.
Containers are filled with sand, preparation of active compound, a suspension of egg-larvae of Meloidogyne incognita and with lettuce seeds. The lettuce seeds germinate and the plants are allowed to grow. Galls are formed on the roots.
After the desird period of time, the nematocidal activity is determined on basis of the formation of galls and is calculated in %.
An activity of 100% means that no galls have been found, an activity of 0% means that the number of the galls at the treated plants corresponds to the number of galls in the untreated control plants.

Myzus persicae = assay: Myzus test; format: in vivo; conditions: 100 ppm, infested cabbage leaves (Brassica oleracea) dipped
Protocol: as §1
Cabbage leaves (Brassica oleracea) which are heavily infested by Myzus persicae are dipped into a preparation of active compound of the desired concentration.
After the desired period of time, the kill in % is determined. 100% means that all aphids have been killed; (0)% means that none of the aphids nave been killed.

Compound | Efficacy in % [1] [%] | further results
O=C(O)C1C2C=CC(O2)C1C(=O)NCc1cc(Cl)nc(Cl)c1 (centres unmarked) | 70 | –
COc1ccccc1NC(=O)C1C2CCC(O2)C1C(=O)O (centres unmarked) | 70 | –
O=C(O)C1C2CCC(O2)C1C(=O)NCCc1ccccc1 (centres unmarked) | 90 | –
O=C(O)C1C2CCC(O2)C1C(=O)O (centres unmarked) | – | kill in % after 7 days [2]: 100%
CCOC(=O)C1C2C=CC(O2)C1C(=O)Sc1ccccc1NC(N)=O (centres unmarked) | – | Kill in % after 6 days [3]: 100%
CC(Cc1ccccc1)NC(=O)C1C2CCC(O2)C1C(=O)O (centres unmarked) | 80 | –
CC(C)(CNC(=O)C1C2C=CC(O2)C1C(=O)O)n1cncn1 (centres unmarked) | 70 | –
COC(=O)C1C2C=CC(O2)C1C(=O)OC (centres unmarked) | – | kill in % after 7 days [4]: 90%
O=C(O)C1C2C=CC(O2)C1C(=O)Nc1cccc(Cl)c1 (centres unmarked) | 70 | –
O=C(O)[C@@H]1C2CCC(O2)[C@@H]1C(=O)O | – | Kill in % after 6 days [3]: 100%
Cc1cc(C)c(NC(=O)C2C3CCC(C)(O3)C2C(=O)O)c(C)c1 (centres unmarked) | – | melting point: 168 °C
CC(CNC(=O)C1C2CCC(O2)C1C(=O)O)c1ccccc1 (centres unmarked) | – | kill in % (Meloidogyne incognita): 100%
O=C(O)C1C2C=CC(O2)C1C(=O)O (centres unmarked) | – | Kill in % after 6 days (Myzus persicae): 80%
O=C(O)C1C2C=CC(O2)C1C(=O)NCCCc1ccccc1 (centres unmarked) | 70 | –
